According to PubChem BioAssay AID1259407 (Chemical Carcinogenesis Research Information System (CCRIS), 2018):
Calls of active or inactive are those of the source. How the calls were made is not given here.

System: CCRIS mutagenicity, Ames/micronucleus/aberration tests
Assay: CCRIS mutagenicity studies
[1] = Test System: AMES SALMONELLA TYPHIMURIUM, Strain/Indicator: TA98, Metabolic Activation: NONE, Method: PREINCUBATION
[2] = Test System: AMES SALMONELLA TYPHIMURIUM, Strain/Indicator: TA98, Metabolic Activation: NONE, Method: STANDARD PLATE
[3] = Test System: AMES SALMONELLA TYPHIMURIUM, Strain/Indicator: TA100, Metabolic Activation: NONE, Method: PREINCUBATION
[4] = Test System: AMES SALMONELLA TYPHIMURIUM, Strain/Indicator: TA100, Metabolic Activation: NONE, Method: STANDARD PLATE
[5] = Test System: AMES SALMONELLA TYPHIMURIUM, Strain/Indicator: TA1535, Metabolic Activation: NONE, Method: PREINCUBATION
[6] = Test System: AMES SALMONELLA TYPHIMURIUM, Strain/Indicator: TA1537, Metabolic Activation: NONE, Method: PREINCUBATION
[7] = Test System: AMES SALMONELLA TYPHIMURIUM, Strain/Indicator: TA1538, Metabolic Activation: NONE, Method: STANDARD PLATE

COc1ccc(O)cc1
mutagenic call (Test System: AMES SALMONELLA TYPHIMURIUM, Strain/Indicator: TA97, Metabolic Activation: NONE, Method: STANDARD PLATE): inactive; negative
mutagenic call (Test System: AMES SALMONELLA TYPHIMURIUM, Strain/Indicator: TA97, Metabolic Activation: S-9, Method: STANDARD PLATE): inactive; negative
mutagenic call (Test System: AMES SALMONELLA TYPHIMURIUM, Strain/Indicator: TA98, Metabolic Activation: HAMSTER, LIVER, S-9, AROCLOR 1254, Method: PREINCUBATION): inactive; negative
mutagenic call [1]: inactive; negative
mutagenic call [2]: inactive; negative
mutagenic call (Test System: AMES SALMONELLA TYPHIMURIUM, Strain/Indicator: TA98, Metabolic Activation: RAT, LIVER, S-9, AROCLOR 1254, Method: PREINCUBATION): inactive; negative
mutagenic call (Test System: AMES SALMONELLA TYPHIMURIUM, Strain/Indicator: TA98, Metabolic Activation: S-9, Method: STANDARD PLATE): inactive; negative
mutagenic call (Test System: AMES SALMONELLA TYPHIMURIUM, Strain/Indicator: TA100, Metabolic Activation: HAMSTER, LIVER, S-9, AROCLOR 1254, Method: PREINCUBATION): inactive; negative
mutagenic call [3]: inactive; negative
mutagenic call [4]: inactive; negative
mutagenic call (Test System: AMES SALMONELLA TYPHIMURIUM, Strain/Indicator: TA100, Metabolic Activation: RAT, LIVER, S-9, AROCLOR 1254, Method: PREINCUBATION): inactive; negative
mutagenic call (Test System: AMES SALMONELLA TYPHIMURIUM, Strain/Indicator: TA100, Metabolic Activation: S-9, Method: STANDARD PLATE): inactive; negative
mutagenic call (Test System: AMES SALMONELLA TYPHIMURIUM, Strain/Indicator: TA102, Metabolic Activation: NONE, Method: STANDARD PLATE): inactive; negative
mutagenic call (Test System: AMES SALMONELLA TYPHIMURIUM, Strain/Indicator: TA102, Metabolic Activation: S-9, Method: STANDARD PLATE): inactive; negative
mutagenic call (Test System: AMES SALMONELLA TYPHIMURIUM, Strain/Indicator: TA1535, Metabolic Activation: HAMSTER, LIVER, S-9, AROCLOR 1254, Method: PREINCUBATION): inactive; negative
mutagenic call [5]: inactive; negative
mutagenic call (Test System: AMES SALMONELLA TYPHIMURIUM, Strain/Indicator: TA1535, Metabolic Activation: RAT, LIVER, S-9, AROCLOR 1254, Method: PREINCUBATION): inactive; negative
mutagenic call (Test System: AMES SALMONELLA TYPHIMURIUM, Strain/Indicator: TA1537, Metabolic Activation: HAMSTER, LIVER, S-9, AROCLOR 1254, Method: PREINCUBATION): inactive; negative
mutagenic call [6]: inactive; negative
mutagenic call (Test System: AMES SALMONELLA TYPHIMURIUM, Strain/Indicator: TA1537, Metabolic Activation: RAT, LIVER, S-9, AROCLOR 1254, Method: PREINCUBATION): inactive; negative
mutagenic call (Test System: E.COLI, Strain/Indicator: WP2 (PKM101), Metabolic Activation: NONE, Method: STANDARD PLATE): inactive; negative
mutagenic call (Test System: E.COLI, Strain/Indicator: WP2 (PKM101), Metabolic Activation: S-9, Method: STANDARD PLATE): inactive; negative

CCOC(=O)c1cc2cc3c4c(c2oc1=O)CCCN4CCC3
mutagenic call [7]: inactive; negative
mutagenic call (Test System: AMES SALMONELLA TYPHIMURIUM, Strain/Indicator: TA1538, Metabolic Activation: RAT, LIVER, S-9, AROCLOR 1254, Method: STANDARD PLATE): inactive; negative

Nc1ccc([N+](=O)[O-])c(O)c1
mutagenic call [2]: inactive; negative
mutagenic call [4]: inactive; negative
mutagenic call (Test System: AMES SALMONELLA TYPHIMURIUM, Strain/Indicator: TA100, Metabolic Activation: RAT, LIVER, S-9, AROCLOR 1254, Method: STANDARD PLATE): inactive; negative
mutagenic call (Test System: AMES SALMONELLA TYPHIMURIUM, Strain/Indicator: TA1535, Metabolic Activation: NONE, Method: STANDARD PLATE): inactive; negative
mutagenic call (Test System: AMES SALMONELLA TYPHIMURIUM, Strain/Indicator: TA1535, Metabolic Activation: RAT, LIVER, S-9, AROCLOR 1254, Method: STANDARD PLATE): inactive; negative
mutagenic call (Test System: AMES SALMONELLA TYPHIMURIUM, Strain/Indicator: TA1537, Metabolic Activation: NONE, Method: STANDARD PLATE): inactive; negative
mutagenic call (Test System: AMES SALMONELLA TYPHIMURIUM, Strain/Indicator: TA1537, Metabolic Activation: RAT, LIVER, S-9, AROCLOR 1254, Method: STANDARD PLATE): inactive; negative
mutagenic call [7]: inactive; negative

O=c1[nH]c(=O)n(Cl)c(=O)n1Cl
mutagenic call (Test System: AMES SALMONELLA TYPHIMURIUM, Strain/Indicator: TA98, Metabolic Activation: HAMSTER, LIVER, S-9, AROCLOR 1254 (10%), Method: PREINCUBATION): inactive; negative
mutagenic call [1]: inactive; negative
mutagenic call (Test System: AMES SALMONELLA TYPHIMURIUM, Strain/Indicator: TA98, Metabolic Activation: RAT, LIVER, S-9, AROCLOR 1254 (10%), Method: PREINCUBATION): inactive; negative
mutagenic call (Test System: AMES SALMONELLA TYPHIMURIUM, Strain/Indicator: TA100, Metabolic Activation: HAMSTER, LIVER, S-9, AROCLOR 1254 (10%), Method: PREINCUBATION): inactive; negative
mutagenic call [3]: inactive; negative
mutagenic call (Test System: AMES SALMONELLA TYPHIMURIUM, Strain/Indicator: TA100, Metabolic Activation: RAT, LIVER, S-9, AROCLOR 1254 (10%), Method: PREINCUBATION): inactive; negative
mutagenic call (Test System: AMES SALMONELLA TYPHIMURIUM, Strain/Indicator: TA1535, Metabolic Activation: HAMSTER, LIVER, S-9, AROCLOR 1254 (10%), Method: PREINCUBATION): inactive; negative
mutagenic call [5]: inactive; negative
mutagenic call (Test System: AMES SALMONELLA TYPHIMURIUM, Strain/Indicator: TA1535, Metabolic Activation: RAT, LIVER, S-9, AROCLOR 1254 (10%), Method: PREINCUBATION): inactive; negative
mutagenic call (Test System: AMES SALMONELLA TYPHIMURIUM, Strain/Indicator: TA1537, Metabolic Activation: HAMSTER, LIVER, S-9, AROCLOR 1254 (10%), Method: PREINCUBATION): inactive; negative
mutagenic call [6]: inactive; negative
mutagenic call (Test System: AMES SALMONELLA TYPHIMURIUM, Strain/Indicator: TA1537, Metabolic Activation: RAT, LIVER, S-9, AROCLOR 1254 (10%), Method: PREINCUBATION): inactive; negative

CC(=O)N(C(C)=O)c1ccc(C)c(N=Nc2ccccc2C)c1
mutagenic call (Test System: AMES SALMONELLA TYPHIMURIUM, Strain/Indicator: TA98, Metabolic Activation: NONE, Method: SUSPENSION/PLATE): inactive; negative
mutagenic call (Test System: AMES SALMONELLA TYPHIMURIUM, Strain/Indicator: TA98, Metabolic Activation: RAT, LIVER, S-9, PHENOBARBITAL AND 5,6-BENZOFLAVONE, Method: SUSPENSION/PLATE): inactive; negative
mutagenic call (Test System: AMES SALMONELLA TYPHIMURIUM, Strain/Indicator: TA100, Metabolic Activation: NONE, Method: SUSPENSION/PLATE): inactive; negative
mutagenic call (Test System: AMES SALMONELLA TYPHIMURIUM, Strain/Indicator: TA100, Metabolic Activation: RAT, LIVER, S-9, PHENOBARBITAL AND 5,6-BENZOFLAVONE, Method: SUSPENSION/PLATE): inactive; negative

OC[C@@H](O)[C@@H](O)[C@H](O)[C@@H](O)CO
mutagenic call (End Point: IN VITRO CHROMOSOMAL ABERRATIONS, Test System: CHO-WBL CELLS, Metabolic Activation: NONE): active; positive (structural changes); osmolality of solution decisive factor
mutagenic call (Test System: AMES SALMONELLA TYPHIMURIUM, Strain/Indicator: TA97A, Metabolic Activation: NONE, Method: PREINCUBATION): inactive; negative
mutagenic call (Test System: AMES SALMONELLA TYPHIMURIUM, Strain/Indicator: TA97A, Metabolic Activation: RAT, LIVER, S-9, AROCLOR 1254, Method: PREINCUBATION): inactive; negative
mutagenic call (Test System: AMES SALMONELLA TYPHIMURIUM, Strain/Indicator: TA102, Metabolic Activation: NONE, Method: PREINCUBATION): inactive; negative
mutagenic call (Test System: AMES SALMONELLA TYPHIMURIUM, Strain/Indicator: TA102, Metabolic Activation: RAT, LIVER, S-9, AROCLOR 1254, Method: PREINCUBATION): inactive; negative

CC(=O)[O-].CC(=O)[O-].[Hg+2]
mutagenic call (End Point: IN VITRO MICRONUCLEUS, Test System: CHL/IU CELLS, Metabolic Activation: NONE): active; positive
mutagenic call (Test System: CHINESE HAMSTER OVARY, Strain/Indicator: AS52/6-THIOGUANINE, Metabolic Activation: NONE): active; positive
mutagenic call (Test System: CHINESE HAMSTER OVARY, Strain/Indicator: CHO-AS52/6-THIOGUANINE, Metabolic Activation: NONE): active; positive
